Measurements published in patent US20240011030A1, “TREATMENTS FOR RETINAL DEGENERATIVE DISEASES” (Novartis AG, priority 2020, published 2024).

How the values were obtained:
Format in all cases: cell-based, human
[1] = test system: DDX58/RIG-I; assay: CRISPR/Cas9 KO, IFNβ secretion by ELISA after nucleic acid stimulation; settings: ARPE19-Cas9 cells, 0.25 μg/ml nucleic acid for 24 hours, FIG. 4A
Experimental: Further validation of the importance of RIG-I as an intracellular nucleic acid sensor was performed using CRISPR/Cas9 KO experiments in ARPE-19 cells. An ARPE-19 cell line stably expressing Cas9 (ARPE19-Cas9) was generated, along with control gRNA and RIG-I gRNA-transduced cell lines. ARPE-19 control gRNA and ARPE-19 RIG-I gRNA cells were generated by sgRNA expression in ARPE-19-Cas9 cells by lentiviral infection. The sgRNA sequence targeting DDX58/RIG-I was 5′-[…]-3′ (SEQ ID NO:1). Control sgRNA sequences used were: 5′-[…]-3′ (SEQ ID NO:8), 5′-[…]-3′ (SEQ ID NO:9), 5′-[…]-3′ (SEQ ID NO:10), and 5′-[…]-3′ (SEQ ID NO: 11). […] All cells were stimulated with 0.25 μg/ml nucleic acid for 24 hours, after which IFNβ secretion was measured by ELISA.
ARPE-19 cells stably expressing the Cas9 gene (ARPE19-Cas9) were generated by lentiviral transduction of ARPE-19 cells. […]
For ELISA, assays were run using Meso Scale Discovery plates (Meso Scale Diagnostics, Rockville, MD). […] Lysates or conditioned media were measured in 384-well plates using antibody pairs for ISG15 (R&D #AF4845, #A-830), IFNβ (R&D #DY814), IFNα1 (abcam #ab215408), IFNγ (R&D #DY285B), IFNλ1/3 (R&D #DY1598B), and cGAS (Cayman #23853, CST #66546). Protein levels were measured according to manufacturer instructions, and detected on a Meso Sector S 600 imager.

[2] = test system: DDX58/RIG-I; assay: CRISPR/Cas9 KO, IL-6 secretion by ELISA after nucleic acid stimulation; settings: ARPE-19-RIG-I KO, 0.25 μg/ml nucleic acid for 24 hours, FIG. 4B
Experimental: In addition to the type I IFN response, nucleic acid sensing can also activate NFκB-dependent cytokine release. IL-6 secretion was measured in ARPE19-Cas9, Control gRNA, and RIG-I gRNA cell line cultures 24 hours after nucleic acid stimulation to evaluate nucleic acid-induced NFκB activation in RPE cells. All cells were stimulated with 0.25 μg/ml nucleic acid for 24 hours, after which IL-6 secretion was measured by ELISA.
(§1) ARPE-19 cells stably expressing the Cas9 gene (ARPE19-Cas9) were generated by lentiviral transduction of ARPE-19 cells. Virus was harvested from supernatants of HEK-293T cells (ATCC) cotransfected with the in-house lentiviral vector pNGx_LV_c010 (39) and Lentiviral Packaging Plasmid Mix (Cellecta, Mountain View, CA; #CPCP-K2A) using TransIT-293 Transfection Reagent (MirusBio, Madison, WI). ARPE19-Cas9 cells were selected with 125 μg/mL HygromycinB (Invitrogen, Carlsbad, CA) and Cas9 expression was verified by western blot using Anti-FLAG primary antibody (Sigma-Aldrich #F1804). ARPE-19 RIG-I KO cells were generated by sgRNA expression in ARPE-19-Cas9 cells by lentiviral infection using the in-house lentiviral vector pNGx_LV_g003 (39). The sgRNA sequence targeting DDX58/RIG-I is 5′-[…]-3′ (SEQ ID NO: 1).

[3] = test system: DDX58/RIG-I; assay: anti-RIG-I/DDX58 western blot verifying knockout; settings: ARPE-19-Cas9 cells transduced with gRNA, FIG. 10D
Experimental: as §1, with “1). Control sgRNA sequences were:” for “1).”
Knockout was verified by western blot (FIG. 10D).
For western blot, samples (30 μg of protein) were dissolved in sample buffer (Invitrogen) and boiled for 5 min at 100° C. The sample was then separated by Criterion™ TGX™ precast gel electrophoresis and electrotransferred onto nitrocellulose membranes (Bio-Rad, Hercules, CA). […] The immuno-reactive proteins were detected using SuperSignal™ West Femto Maximum sensitivity substrate (ThermoFisher Scientific) and imaged on FluorChem M (ProteinSimple, San Jose, CA).

[4] = test system: RPE cells; assay: ISG15 induction by IFN stimulation (ELISA); settings: THP1, ARPE-19 or iPS-RPE cells, IFNs up to 100 μg/ml, 24 hours, FIGS. 2D to 2F
Experimental: To test whether IFNs can induce an IFN response and, if so, which IFNs can induce an IFN response, cells were treated with different IFNs (IFNα1, IFNβ, IFNγ, or IFNλ1/2/3), and ISG15 induction was measured. Cells were treated with different IFN types at 100 ng/ml each (FIG. 2D) or 0 ng/ml IFN, 0.1 ng/ml IFN, 1 ng/ml IFN, 10 ng/ml IFN, or 100 ng/ml IFN (FIGS. 2E and 2F). ISG15 expression in was detected by ELISA 24 hours after treatment as described above, using antibody pairs for ISG15 (R&D #AF4845, #A-830).
For ELISA, assays were run using Meso Scale Discovery plates (Meso Scale Diagnostics, Rockville, MD). Lysates were extracted using cell lysis buffer (CST #9803), and supplemented with protease and phosphatase inhibitors. Lysates or conditioned media were measured in 384-well plates using antibody pairs for ISG15 (R&D #AF4845, #A-830), IFNβ (R&D #DY814), IFNα1 (abcam #ab215408), IFNγ (R&D #DY285B), IFNλ1/3 (R&D #DY1598B), and cGAS (Cayman #23853, CST #66546). Protein levels were measured according to manufacturer instructions, and detected on a Meso Sector S 600 imager.

| Molecule | IFNβ secretion response to all nucleic acid species tested [1] | poly(I:C)-induced IL-6 release [2] | DDX58 protein by western blot [3] | ISG15 induction in response to IFN stimulation [4] |
| --- | --- | --- | --- | --- |
| 5′-ACTCACCCTCCCTAAACCAG-3′ (expressed or natural sequence) [RIG-I gRNA] | completely abrogated | only partially reduced | lack of detectable DDX58 protein | – |
| IFNα: type I interferon purchased from R&D Systems (protein, UniProt P01562 24-189, looked up) Interferon alpha-1/13: CDLPETHSLDNRRTLMLLAQMSRISPSSCLMDRHDFGFPQEEFDGNQFQKAPAISVLHELIQQIFNLFTTKDSSAAWDEDLLDKFCTELYQQLNDLEACVMQEERVGETPLMNADSILAVKKYFRRITLYLTEKKYSPCAWEVVRAEIMRSLSLSTNLQERLRRKE | – | – | – | primarily responded |
